Entries after “also recorded” stand apart in the source; their conditions may differ.
System: TLR7/8 agonist R848-stimulated monocytes
Test: Ex-vivo R848-stimulated healthy monocytes, RNA-seq of HS-overexpressed proinflammatory transcripts
Assay type: cell-based, human
Conditions: healthy donor monocytes (N=3), 500 nM overnight, then R848, RNA-seq at 2 hours

SMILES: Cn1c(=O)n(C2CCC(=O)NC2=O)c2cccc(C#CCOC3CCN(C[C@H]4CC[C@H](n5cc(NC(=O)c6cnn7ccc(N8C[C@H]9C[C@@H]8CO9)nc67)c(C(F)F)n5)CC4)CC3)c21 (stereo partly shown) [Degrader 2]
- effect on TLR-mediated (R848) induction of HS-overexpressed proinflammatory transcripts: inhibits TLR-mediated induction of HS-overexpressed proinflammatory transcripts; also recorded: inhibits TLR-stimulated upregulation of HS-overexpressed inflammatory genes

Reference: patent US20230241075A1, “IRAK DEGRADERS AND USES THEREOF” (Kymera Therapeutics, Inc., priority 2020, published 2023)
